Columns and labels:
[1] = tested on: HCC15 lung squamous cell carcinoma cells (K-Ras WT); assay: Growth inhibition, thoracic malignancy cell lines: HCC15; format: cell-based
[2] = tested on: A549 human lung cancer cell line harboring constitutively active Ras mutant; assay: MTT growth inhibition assay, A549; format: cell-based
Procedure: MCF-7 (breast cancer), T47D (breast cancer), Colo 205 (colon cancer), JM-1 (rat hepatoma), Sk Mel-2 (melanoma), PLC (human hepatoma), and HepG2 (human hepatoma) were obtained from American Type Cell Culture Collection. MCF-7 cells were grown in RPMI medium supplemented with 10% Fetal Bovine Serum. The remaining cell lines were grown in DMEM medium supplemented with 10% Fetal Bovine Serum. For the assay, cells were seeded into 96 well plates in medium containing 1% Fetal Bovine Serum and 100 μL of a cell suspension containing 5000 cells per well were used for each well. Cell growth was evaluated utilizing MTT ((3-(4,5-Dimethylthiazol-2-yl)-2,5-diphenyltetrazolium). The absorbance of the wells at 544 nm was determined by a FLUOstar/POLARstar Galaxy (BMG Lab Technologies GmbH) microplate reader.
The growth inhibitory activity of compounds was compared using the A549 human lung cancer cell line harboring constitutively active G12D Ras mutant with the help of an MTT assay. […] Stepwise extensions and truncations confirmed that the peptide had the optimal length (see Table 1).
The growth inhibitory activity of compounds was compared using the A549 human lung cancer cell line harboring constitutively active G12D Ras mutant with the help of an MTT assay.

[3] = tested on: H2461 malignant pleural mesothelioma cells (K-Ras WT); assay: Growth inhibition, thoracic malignancy cell lines: H2461; format: cell-based
[4] = tested on: H2596 malignant pleural mesothelioma cells (K-Ras WT); assay: Growth inhibition, thoracic malignancy cell lines: H2596; format: cell-based
[5] = tested on: H460 large cell carcinoma cells (K-Ras mutant); assay: Growth inhibition, thoracic malignancy cell lines: H460; format: cell-based, human
[6] = tested on: HP-1 malignant pleural mesothelioma cells (K-Ras WT); assay: Growth inhibition, thoracic malignancy cell lines: HP-1; format: cell-based; settings: HP-1, K-Ras WT
[7] = tested on: Calu3 lung adenocarcinoma cells (K-Ras WT); assay: Growth inhibition, thoracic malignancy cell lines: Calu3; format: cell-based
[8] = tested on: Ras protein in H2009 and H2592 cells; assay: Western blot of Ras protein amount in cancer cells; format: cell-based; settings: 0-3.0 μM, 18 hours
Procedure: A further experiment was undertaken to determine the effect of analogs of helix 6 and HVR on the amount of K-Ras protein in cancer cells. H2009 (lung adenocarcinoma cells) and H2592 (plural mesothelioma cells) were exposed to varying concentrations (0-3.0 μM) of kR-4A-3, kR-4B-3, or kR-H6-3 for 18 hours. The cells then were lysed and the lysate was analyzed by Western blot using anti-Ras mAb (Cell Biolabs, Inc.).

[9] = tested on: H157 lung squamous cell carcinoma cells (K-Ras mutant); assay: Growth inhibition, thoracic malignancy cell lines: H157; format: cell-based
[10] = tested on: H2009 lung adenocarcinoma cells (K-Ras mutant); assay: Growth inhibition, thoracic malignancy cell lines: H2009; format: cell-based
[11] = tested on: H2373 malignant pleural mesothelioma cells (K-Ras WT); assay: Growth inhibition, thoracic malignancy cell lines: H2373; format: cell-based
[12] = tested on: H358 broncheoalveolar cells (K-Ras mutant); assay: Growth inhibition, thoracic malignancy cell lines: H358; format: cell-based, human
[13] = tested on: Calu 6 lung adenocarcinoma cells (K-Ras mutant); assay: Growth inhibition, thoracic malignancy cell lines: Calu 6; format: cell-based; settings: Calu 6, K-Ras mutant
[14] = tested on: HCC95 lung squamous cell carcinoma cells (K-Ras WT); assay: Growth inhibition, thoracic malignancy cell lines: HCC95; format: cell-based
[15] = tested on: H23 lung adenocarcinoma cells (K-Ras mutant); assay: Growth inhibition, thoracic malignancy cell lines: H23; format: cell-based
[16] = tested on: H2882 lung adenocarcinoma cells (K-Ras WT); assay: Growth inhibition, thoracic malignancy cell lines: H2882; format: cell-based
[17] = target: 15N-labeled truncated K-Ras (1-166) (Homo sapiens, UniProt P01116); settings: 200 μM protein, 25° C., chemical shift perturbations Q25, N26, S32, T35, E37
Procedure: The titration was followed by NMR ^15N-edited HSQC spectra acquired on a 600 MHz Bruker spectrometer at 25° C.

K-Ras in H2592 cells = K-Ras in H2592 cells (Homo sapiens, UniProt P01116); settings: GI50 concentrations, 18 hours
Source text: Goat anti-mouse antibodies with Alexa Fluor TM 594 (red) were used to visualize the anti-Ras mouse mAb.

[18] = tested on: activated (GTP-bound) Ras in H358 human lung cancer cells; assay: Raf-RBD pull-down of active (GTP-bound) Ras; format: cell-based; settings: 5 μM, varying exposure times
Procedure: H358 human lung cancer cells were grown in 6-well plates in DMEM medium containing 10% FBS. When the cells were about 70% confluent, the medium was replaced with DMEM containing 1% FBS. Two hours later, Ras inhibitors (kR-H6-48, HR-1, kR-4A-4, or kR-4B-2) were added to provide a final concentration of 5 μM.
After varying exposure times, the cells were rinsed with PBS and lysed. The lysates were cleared by centrifugation, incubated with immobilized Raf-RBD beads (which bind Ras) and analyzed by Western blot using manufacturer's protocols (Cytoskeleton, Inc., Denver, Colo.; Catalog No. BK008). The bands corresponding to active (GTP-bound) Ras were quantified with the help of MIPAV software.

[19] = tested on: Ras-dependent cancer cells (H358, SKBR3, SKOV3, ID8, MPR-178); assay: MTT growth assay on Ras-dependent cancer cells; format: cell-based, human, murine; settings: 48 hours, 1% FBS
Procedure: Ras-dependent cancer cells (H358 human lung cancer cells, SKBR3 human breast cancer cells, SKOV3 human ovarian cancer cells, ID8 murine ovarian cancer cells, and MPR-178 murine prostate cancer cells) were grown in DMEM medium containing 1% FBS and exposed to varying concentrations of Ras inhibitors (kR-H6-48 and HR-1) for 48 hours. Cell growth was evaluated utilizing an MTT ((3-(4,5-Dimethylthiazol-2-yl)-2,5-diphenyltetrazolium) assay. The absorbance of the wells at 544 nm was determined by a FLUOstar/POLARstar Galaxy (BMG Lab Technologies GmbH, Ortenberg, Germany) microplate reader. The assays were performed on untreated (control) and test cells. Cellular responses were calculated from the data using the following formula: 100×[(T−T0)/(C−T0)] for T>T0 and 100×[(T−T0)/T0] for T<T0, wherein T0 corresponds to cell density at the time of drug addition.

[20] = tested on: Lewis lung carcinoma LL/2 (LLC1) cells; assay: Lewis lung carcinoma LLC1 isograft growth; format: in vivo, female CB57Bl/6 mice; settings: 10 mg/kg s.c. near the tumor every second day
Procedure: Lewis lung carcinoma LL/2 (LLC1) (ATCC Catalog No. CRL-1642) cells were grown in DMEM medium containing 10% FBS. Cells were trypsinized and suspended in PBS. 3×10^6 LLC1 cells in 200 μl PBS were injected subcutaneously to the right flank of 8 weeks old female CB57Bl/6 mice.
Ras inhibitor injections started 2 weeks after LLC1 injections when tumors were at least 3 mm in diameter. For injections, solid kR-H6-48 was initially dissolved in DMSO to yield 20 mg/mL stock solution. DMSO stocks were diluted 20-fold in PBS pre-warmed to 35-37° C. 200 μl of the resulting solution (10 mg/kg dose) was injected subcutaneously near the tumor(s) every second day. The control group received 200 μl of 5% DMSO in PBS. Tumor size was measured with a caliper before each injection. The mice were sacrificed when the tumors reached maximal allowed size.

[21] = A549, MTT, Table 2 HVR derivatives
[22] = A549, MTT, Table 1 helix 6 derivatives

Q: What does the source list for Ac-KKKKKKSKTKK-e-Pal [kR-4B-3]?
A: GI50 [1]: 3100 nM; GI50 ([2]; A549, K-Ras mutant, Table 3): 1450 nM; GI50 [2, 21]: 1750 nM; GI50 [3]: > 10000 nM; GI50 [4]: 6200 nM; GI50 [5]: 1000 nM; GI50 [6]: 7300 nM; GI50 [7]: 2200 nM; amount of Ras protein [8]: reduced the amount of Ras protein in lung cancer cells in a concentration-dependent manner; GI50 [9]: 1500 nM; GI50 [10]: 2900 nM; GI50 [11]: 4800 nM; GI50 [12]: 2000 nM; GI50 [13]: 2700 nM; GI50 [14]: 3300 nM; GI50 [15]: 2400 nM; GI50 [16]: 3000 nM

Q: With Pal-e-KAFYTLVREIRQYR [kR-H6-6] as the substance, how does the GI50 [2, 22] read?
A: 250 nM

Q: What about the “site of interaction with K-Ras” value [17] of the same substance?
A: localized interaction of the peptide with the Switch I region of K-Ras

Q: How did the GI50 [1] turn out when “Ac-YRLKKISKEEKTPGLNVKIKKK-e-Pal [kR-4A-3]” was run?
A: 7400 nM

Q: What about the GI50 ([2]; A549, K-Ras mutant, Table 3) of the same substance?
A: 3100 nM

Q: And the GI50 [2, 21]?
A: 1900 nM

Q: And the GI50 [3]?
A: > 10000 nM

Q: What about the GI50 [4] of the same substance?
A: 8200 nM

Q: And the GI50 [5]?
A: 1500 nM

Q: What about the GI50 [6] of the same substance?
A: > 10000 nM

Q: What about the GI50 [7] of the same substance?
A: 5900 nM

Q: And the “Ras protein levels by immunostaining” value (K-Ras in H2592 cells)?
A: reduction in protein levels

Q: And the “pattern of K-Ras distribution” value (K-Ras in H2592 cells)?
A: lack of characteristic punctuate pattern of K-Ras distribution

Q: What about the “amount of Ras protein” value [8] of the same substance?
A: reduced the amount of Ras protein in lung cancer cells in a concentration-dependent manner

Q: And the GI50 [9]?
A: 2400 nM

Q: What about the GI50 [10] of the same substance?
A: 2200 nM

Q: And the GI50 [11]?
A: 6100 nM

Q: And the GI50 [12]?
A: 2200 nM

Q: And the GI50 [13]?
A: 3000 nM

Q: What about the GI50 [14] of the same substance?
A: 5100 nM

Q: What about the GI50 [15] of the same substance?
A: 2600 nM

Q: And the GI50 [16]?
A: 4000 nM

Q: Which “GTP-bound Ras (fraction of control)” value [18] does the source give for Cap-YQRVQRVLTYFA (all D) [kR-H6-48] here?
A: reduction in activated (GTP-bound) Ras

Q: And the GI50 [2, 22]?
A: 0.8 ± 0.5 nM

Q: And the “growth of Ras-dependent cancer cells (cell number, percent of control)” value [19]?
A: growth inhibition of Ras-dependent cancer cells

Q: And the LLC1 isograft growth [20]?
A: inhibited LLC1 isograft growth

Reference: patent US9328142B2, “Lipopeptide inhibitors of RAS oncoproteins” (The United States of America, as represented by The …, priority 2011, dated 2016)
